# Numbers after ± are expanded uncertainties.
# Details: Liquid
smiles,measurement,setting,value
CCOC(C)=O [ethyl acetate],mass density,"298.15 K, 100 kPa",894 ± 3.1 kg/m3
same,mass density,"298.15 K, 1000 kPa",894.7 ± 3.2 kg/m3
same,mass density,"298.15 K, 2000 kPa",895.7 ± 3.4 kg/m3
same,mass density,"298.15 K, 3000 kPa",896.7 ± 3.5 kg/m3
same,mass density,"298.15 K, 3800 kPa",897.4 ± 3.6 kg/m3
same,mass density,"298.15 K, 5000 kPa",898.8 ± 3.7 kg/m3
same,mass density,"298.15 K, 10000 kPa",903.4 ± 4.3 kg/m3
same,mass density,"298.15 K, 15000 kPa",907.7 ± 4.9 kg/m3
same,mass density,"298.15 K, 20000 kPa",912 ± 5.5 kg/m3
same,mass density,"298.15 K, 25000 kPa",916.1 ± 6.1 kg/m3
same,mass density,"298.15 K, 30000 kPa",921.1 ± 6.7 kg/m3
same,mass density,"298.15 K, 35000 kPa",926.3 ± 7.3 kg/m3
same,mass density,"303.15 K, 100 kPa",887.6 ± 3.1 kg/m3
same,mass density,"303.15 K, 1000 kPa",888.5 ± 3.2 kg/m3
same,mass density,"303.15 K, 2000 kPa",889.5 ± 3.4 kg/m3
same,mass density,"303.15 K, 3000 kPa",890.5 ± 3.5 kg/m3
same,mass density,"303.15 K, 3800 kPa",891.3 ± 3.6 kg/m3
same,mass density,"303.15 K, 5000 kPa",892.7 ± 3.7 kg/m3
same,mass density,"303.15 K, 10000 kPa",897.5 ± 4.3 kg/m3
same,mass density,"303.15 K, 15000 kPa",902 ± 4.9 kg/m3
same,mass density,"303.15 K, 20000 kPa",906.3 ± 5.5 kg/m3
same,mass density,"303.15 K, 25000 kPa",910.7 ± 6.1 kg/m3
same,mass density,"303.15 K, 30000 kPa",915.9 ± 6.7 kg/m3
same,mass density,"303.15 K, 35000 kPa",921.2 ± 7.3 kg/m3
same,mass density,"308.15 K, 100 kPa",881.4 ± 3.1 kg/m3
same,mass density,"308.15 K, 1000 kPa",882.3 ± 3.2 kg/m3
same,mass density,"308.15 K, 2000 kPa",883.3 ± 3.4 kg/m3
same,mass density,"308.15 K, 3000 kPa",884.4 ± 3.5 kg/m3
same,mass density,"308.15 K, 3800 kPa",885.3 ± 3.6 kg/m3
same,mass density,"308.15 K, 5000 kPa",886.7 ± 3.7 kg/m3
same,mass density,"308.15 K, 10000 kPa",891.7 ± 4.3 kg/m3
same,mass density,"308.15 K, 15000 kPa",896.4 ± 4.9 kg/m3
same,mass density,"308.15 K, 20000 kPa",900.9 ± 5.5 kg/m3
same,mass density,"308.15 K, 25000 kPa",905.4 ± 6.1 kg/m3
same,mass density,"308.15 K, 30000 kPa",910.7 ± 6.7 kg/m3
same,mass density,"308.15 K, 35000 kPa",916.2 ± 7.3 kg/m3
same,mass density,"313.15 K, 100 kPa",875.2 ± 3.1 kg/m3
same,mass density,"313.15 K, 1000 kPa",876.1 ± 3.2 kg/m3
same,mass density,"313.15 K, 2000 kPa",877.2 ± 3.4 kg/m3
same,mass density,"313.15 K, 3000 kPa",878.3 ± 3.5 kg/m3
same,mass density,"313.15 K, 3800 kPa",879.2 ± 3.6 kg/m3
same,mass density,"313.15 K, 5000 kPa",880.6 ± 3.7 kg/m3
same,mass density,"313.15 K, 10000 kPa",885.8 ± 4.3 kg/m3
same,mass density,"313.15 K, 15000 kPa",890.7 ± 4.9 kg/m3
same,mass density,"313.15 K, 20000 kPa",895.4 ± 5.5 kg/m3
same,mass density,"313.15 K, 25000 kPa",899.8 ± 6.1 kg/m3
same,mass density,"313.15 K, 30000 kPa",905.3 ± 6.7 kg/m3
same,mass density,"313.15 K, 35000 kPa",910.9 ± 7.3 kg/m3
same,mass density,"318.15 K, 100 kPa",868.8 ± 3.1 kg/m3
same,mass density,"318.15 K, 1000 kPa",869.8 ± 3.2 kg/m3
same,mass density,"318.15 K, 2000 kPa",871 ± 3.4 kg/m3
same,mass density,"318.15 K, 3000 kPa",872.2 ± 3.5 kg/m3
same,mass density,"318.15 K, 3800 kPa",873.1 ± 3.6 kg/m3
same,mass density,"318.15 K, 5000 kPa",874.5 ± 3.7 kg/m3
same,mass density,"318.15 K, 10000 kPa",880 ± 4.3 kg/m3
same,mass density,"318.15 K, 15000 kPa",885.1 ± 4.9 kg/m3
same,mass density,"318.15 K, 20000 kPa",889.8 ± 5.5 kg/m3
same,mass density,"318.15 K, 25000 kPa",894.5 ± 6.1 kg/m3
same,mass density,"318.15 K, 30000 kPa",900.1 ± 6.7 kg/m3
same,mass density,"318.15 K, 35000 kPa",905.9 ± 7.3 kg/m3
same,mass density,"323.15 K, 100 kPa",862.7 ± 3.1 kg/m3
same,mass density,"323.15 K, 1000 kPa",864 ± 3.2 kg/m3
same,mass density,"323.15 K, 2000 kPa",865.1 ± 3.4 kg/m3
same,mass density,"323.15 K, 3000 kPa",866.2 ± 3.5 kg/m3
same,mass density,"323.15 K, 3800 kPa",867.1 ± 3.6 kg/m3
same,mass density,"323.15 K, 5000 kPa",868.6 ± 3.7 kg/m3
same,mass density,"323.15 K, 10000 kPa",874.2 ± 4.3 kg/m3
same,mass density,"323.15 K, 15000 kPa",879.4 ± 4.9 kg/m3
same,mass density,"323.15 K, 20000 kPa",884.3 ± 5.5 kg/m3
same,mass density,"323.15 K, 25000 kPa",889.2 ± 6.1 kg/m3
same,mass density,"323.15 K, 30000 kPa",895 ± 6.7 kg/m3
same,mass density,"323.15 K, 35000 kPa",900.9 ± 7.3 kg/m3
same,mass density,"328.15 K, 100 kPa",856.4 ± 3.1 kg/m3
same,mass density,"328.15 K, 1000 kPa",857.8 ± 3.2 kg/m3
same,mass density,"328.15 K, 2000 kPa",859.2 ± 3.4 kg/m3
same,mass density,"328.15 K, 3000 kPa",860.5 ± 3.5 kg/m3
same,mass density,"328.15 K, 3800 kPa",861.5 ± 3.6 kg/m3
same,mass density,"328.15 K, 5000 kPa",862.5 ± 3.7 kg/m3
same,mass density,"328.15 K, 10000 kPa",868.4 ± 4.3 kg/m3
same,mass density,"328.15 K, 15000 kPa",873.9 ± 4.9 kg/m3
same,mass density,"328.15 K, 20000 kPa",879 ± 5.5 kg/m3
same,mass density,"328.15 K, 25000 kPa",884.1 ± 6.1 kg/m3
same,mass density,"328.15 K, 30000 kPa",890.1 ± 6.7 kg/m3
same,mass density,"328.15 K, 35000 kPa",896.2 ± 7.3 kg/m3
same,mass density,"333.15 K, 100 kPa",850.4 ± 3.1 kg/m3
same,mass density,"333.15 K, 1000 kPa",851.7 ± 3.2 kg/m3
same,mass density,"333.15 K, 2000 kPa",853 ± 3.4 kg/m3
same,mass density,"333.15 K, 3000 kPa",854.4 ± 3.5 kg/m3
same,mass density,"333.15 K, 3800 kPa",855.4 ± 3.6 kg/m3
same,mass density,"333.15 K, 5000 kPa",856.8 ± 3.7 kg/m3
same,mass density,"333.15 K, 10000 kPa",862.9 ± 4.3 kg/m3
same,mass density,"333.15 K, 15000 kPa",868.5 ± 4.9 kg/m3
same,mass density,"333.15 K, 20000 kPa",873.8 ± 5.5 kg/m3
same,mass density,"333.15 K, 25000 kPa",879 ± 6.1 kg/m3
same,mass density,"333.15 K, 30000 kPa",885.2 ± 6.7 kg/m3
same,mass density,"333.15 K, 35000 kPa",891.4 ± 7.3 kg/m3
same,mass density,"338.15 K, 100 kPa",844 ± 3.1 kg/m3
same,mass density,"338.15 K, 1000 kPa",845.4 ± 3.2 kg/m3
same,mass density,"338.15 K, 2000 kPa",846.8 ± 3.4 kg/m3
same,mass density,"338.15 K, 3000 kPa",848.2 ± 3.5 kg/m3
same,mass density,"338.15 K, 3800 kPa",849.3 ± 3.6 kg/m3
same,mass density,"338.15 K, 5000 kPa",850.8 ± 3.7 kg/m3
same,mass density,"338.15 K, 10000 kPa",857.1 ± 4.3 kg/m3
same,mass density,"338.15 K, 15000 kPa",863 ± 4.9 kg/m3
same,mass density,"338.15 K, 20000 kPa",868.5 ± 5.5 kg/m3
same,mass density,"338.15 K, 25000 kPa",873.9 ± 6.1 kg/m3
same,mass density,"338.15 K, 30000 kPa",880.3 ± 6.7 kg/m3
same,mass density,"338.15 K, 35000 kPa",886.7 ± 7.3 kg/m3
same,mass density,"343.15 K, 100 kPa",837.5 ± 3.1 kg/m3
same,mass density,"343.15 K, 1000 kPa",839.1 ± 3.2 kg/m3
same,mass density,"343.15 K, 2000 kPa",840.6 ± 3.4 kg/m3
same,mass density,"343.15 K, 3000 kPa",842 ± 3.5 kg/m3
same,mass density,"343.15 K, 3800 kPa",843.2 ± 3.6 kg/m3
same,mass density,"343.15 K, 5000 kPa",844.5 ± 3.7 kg/m3
same,mass density,"343.15 K, 10000 kPa",851.2 ± 4.3 kg/m3

# From the NIST ThermoML archive (doi:10.1021/je060339m)
